Assay results reported in US20260132384A1, “METHOD FOR REPROGRAMMING HUMAN SOMATIC CELLS INTO INDUCED PLURIPOTENT STEM CELLS” (EXONEUGLIA BIOTECHNOLOGY (SUZHOU) CO., LTD., priority 2023, published 2026).

System: peripheral blood mononuclear cells (PBMCs)
Test: Reprogramming of human peripheral blood cells into induced pluripotent stem cells; clones counted by alkaline phosphatase staining
Type: cell-based
Conditions: day 14, clones per 5.0×10^5 reprogrammed PBMCs, OCT4, SOX2, LIN28 episomal plasmids, inducers added to induction medium
Procedure: The inducing factors were introduced via electroporation of episomal plasmids in Treatment Groups 1 to 6. The groups differed only in the chemical inducer small molecules added to the pluripotent stem cell induction medium. The specific steps were as follows:
(2) Expansion of Peripheral Blood Cells: Freshly isolated peripheral blood cells (peripheral blood cells obtained with ethical approval were purchased from Shanghai HYCELLs Company) were seeded into a 6-well plate at a density of 5×10^6 cells/mL and cultured statically for 7 days at 37° C. in an incubator. The peripheral blood cell expansion medium used was StemPro™-34 medium supplemented with SCF 100 ng/ml, FLT-3 100 ng/ml, IL-3 20 ng/ml, IL-6 20 ng/ml, and TPO 100 ng/mL.
(3) Electroporation: Prior to electroporation, 500 μL of diluted basement membrane matrix (Matrigel) was added to a […] and placed in a CO2 incubator for coating. The expanded cells were collected and washed. After counting, the peripheral blood mononuclear cells (PBMCs) were placed in a 1.5 mL centrifuge tube at a density of 2×10^6 cells/mL. The tube was loaded into a centrifuge and centrifuged at 200 g for 5 minutes. After centrifugation, the supernatant was aspirated with a pipette and set aside for later use.
According to the Thermo Neon electroporation instrument protocols, buffer was added. The cell pellet was mixed with 5 μg of pCEP4-OCT4-IRES-SOX2 plasmid and 2 μg of pCEP4-Lin28 plasmid, and the mixture was loaded into the electroporation instrument for electroporation. Peripheral blood expansion medium was immediately added thereafter, and the cells were seeded in the coated 6-well plate at a density of 5×10^5 cells/mL and cultured statically for 48 h at 37° C. in a CO2 incubator.
(4) Induction: At 48 h post-electroporation, 1 mL of pluripotent stem cell induction medium was directly added to the original wells, and the culture was continued statically for 48 h at 37° C. in a CO2 incubator; On day 4 post-electroporation, half of the old medium in the original wells was aspirated and discarded, 1 mL of fresh pluripotent stem cell induction medium was then added, and the culture was continued statically for 48 h at 37° C. in a CO2 incubator; On day 6 post-electroporation, all the old medium in the original wells was aspirated and discarded, 1 mL of fresh pluripotent stem cell induction medium was added, and the culture was continued statically for 48 h at 37° C. in a CO2 incubator; On day 8 post-electroporation, all the old medium in the original wells was aspirated and discarded, 1 mL of fresh pluripotent stem cell induction medium was added, and the culture was continued statically for 48 h at 37° C. in a CO2 incubator; On day 10 post-electroporation, all the old medium in the original wells was aspirated and discarded, 1 mL of fresh mTeSR1 medium was added, and the culture was continued statically at 37° C. in a CO2 incubator; The mTeSR1 medium was changed daily until the induced pluripotent stem cells were fully mature, approximately on day 14 or 15 post-electroporation. Clones were then picked for expansion.
The pluripotent stem cell induction medium for Treatment Group 1 was mTeSR1 medium supplemented with 3 μM chir99021, 100 ng/ml FGF2, 250 μM NaB, 2 μM SB203580, 1 μM peficitinib, 1 μM FPFT-2216, 0.1 μM VTP50469, 2% (v/v) B27, and 1% (v/v)N-2.
The pluripotent stem cell induction medium for Treatment Group 2 was mTeSR1 medium supplemented with 3 μM chir99021, 100 ng/ml FGF2, 250 μM NaB. 1 μM peficitinib, 2% (v/v) B27, and 1% (v/v)N-2.
The pluripotent stem cell induction medium for Treatment Group 3 was mTeSR1 medium supplemented with 3 μM chir99021, 100 ng/ml FGF2, 250 μM NaB, 2 μM Tofacitinib, 2% (v/v) B27, and 1% (v/v)N-2.
The pluripotent stem cell induction medium for Treatment Group 4 was mTeSR1 medium supplemented with 3 μM chir99021, 100 ng/ml FGF2, 250 μM NaB, 2 μM SB203580, 2% (v/v) B27, and 1% (v/v)N-2. […]

Row | Compound | Average Number of Pluripotent Stem Cell Clone/Well, Experiment 1 [Clone/Well] | Average Number of Pluripotent Stem Cell Clone/Well, Experiment 2 [Clone/Well] | Average Number of Pluripotent Stem Cell Clone/Well, Experiment 3 [Clone/Well]
1 | NC(=O)c1cnc2[nH]ccc2c1N[C@@H]1[C@@H]2CC3C[C@H]1C[C@@](O)(C3)C2 [Peficitinib] | 43 | 52 | 47
2 | C[S+]([O-])c1ccc(-c2nc(-c3ccncc3)c(-c3ccc(F)cc3)[nH]2)cc1 (stereo not drawn) [SB203580] | 51 | 56 | 48
3 | C[C@@H]1CCN(C(=O)CC#N)C[C@@H]1N(C)c1ncnc2[nH]ccc12 [Tofacitinib] | 20 | 16 | 22
